Columns and labels:
[1] = test system: serotonin reuptake and norepinephrine reuptake; conditions: cited from earlier work; for selectivity for serotonin reuptake inhibition than norepinephrine reuptake inhibition: higher selectivity for serotonin reuptake
[2] = test system: Major depressive disorder (MDD); experiment: weekly MADRS-s self-assessment of MDD subjects on a pharmacologic antidepressant agent combined with tDCS sessions (Example 2); assay type: in vivo, human; conditions: each agent combined with tDCS; Week 6; change in MADRS-s, FIG. 7
Excerpt: In this example, a subject completed a MADRS-s questionnaire at baseline (defined as a time preceding initiation of neurostimulation) to determine a starting measurement to be used in an assessment of treatment efficacy. Ideally, baseline measures were made close to the period of time in which the first neurostimulation session began. The subject completed the same MADRS-s questionnaire weekly during a period of ongoing treatment comprising administering of a prescribed pharmacologic antidepressant agent and delivery to the subject of plurality tDCS sessions. […]
Subjects were provided with a tDCS neurostimulation device, instructions of use, and an program capable of being run on a handheld electronic device which provided instructions, recorded responses to various questionnaires completed by the subject, and recorded information regarding the tDCS stimulation sessions completed by the user. Amongst the tDCS stimulation session information recorded was the date of each session completed, the time of day of each completed session, the duration of each completed session, the intensity of electrical stimulation in each session, the latency from the most recently completed session to the previous session.
Subjects completed a MADSR-s assessment at baseline prior to their first tDCS session. […] If the dosage had changed, the subject recorded the extent of the change. […]

Row | SMILES | potency for norepinephrine reuptake inhibition than serotonin reuptake inhibition [1] [fold] | effectiveness in improving symptoms of depression compared to fluoxetine [2] | selectivity for serotonin reuptake inhibition than norepinephrine reuptake inhibition [1] [fold]
1 | CCN(CC)C(=O)[C@@]1(c2ccccc2)C[C@H]1CN [Levomilnacipran] | 2 |  | 
2 | CCN(CC)C(=O)C1(c2ccccc2)CC1CN (stereo not drawn) [Milnacipran] | 3 |  | 
3 | CN[C@H]1CC[C@@H](c2ccc(Cl)c(Cl)c2)c2ccccc21 [Sertraline] |  | significantly better | 
4 | COc1ccc(C(CN(C)C)C2(O)CCCCC2)cc1 (stereo not drawn) [Venlafaxine] |  | approaching significance | 
5 | CN(C)CC(c1ccc(O)cc1)C1(O)CCCCC1 (stereo not drawn) [desvenlafaxine] |  |  | 10
6 | CNCC[C@H](Oc1cccc2ccccc12)c1cccs1 [duloxetine] |  |  | 10

Source: US20260077191A1, “COMBINATION THERAPY FOR THE TREATMENT OF DEPRESSION” (Flow Neuroscience, Inc., priority 2022, published 2026)
